Measured values: patent publication US8927695B2, “Protein-based assays for screening of the IgE-receptor interaction” (The Board of Trustees of the Leland Stanford Junior …, priority 2010, dated 2015)

T1: FcεRIα (Homo sapiens, UniProt P12319)
T1 sequence (P12319 26-257): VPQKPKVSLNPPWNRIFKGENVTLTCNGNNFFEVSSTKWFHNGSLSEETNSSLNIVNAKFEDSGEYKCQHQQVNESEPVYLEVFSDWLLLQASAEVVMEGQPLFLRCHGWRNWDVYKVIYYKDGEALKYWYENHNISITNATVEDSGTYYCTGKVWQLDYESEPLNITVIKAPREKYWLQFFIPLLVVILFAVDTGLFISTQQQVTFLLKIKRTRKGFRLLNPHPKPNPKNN

B1: unlabeled IgE-Fc: unlabeled wild type human IgE-Fc (Cε3-Cε4) used as competitor (protein, listed as Homo sapiens)
chain: ADPCADSNPRGVSAYLSRPSPFDLFIRKSPTITCLVVDLAPSKGTVNLTWSRASGKPVNHSTRKEEKQRNGTLTVTSTLPVGTRDWIEGETYQCRVTHPHLPRALMRSTTKTSGPRAAPEVYAFATPEWPGSRDKRTLACLIQNFMPEDISVQWLHNEVQLPDARHSTTQPRKTKGSGFFVFSRLEVTRAEWEQKDEFICRAVHEAASPSQTVQRAVSVNPGK
modifications: PEPTIDE (1)..(223) Wildtype IgE-Fc (C3-C4)

How the values were obtained:
transthyretin (TTR) = transthyretin (TTR) (Homo sapiens, UniProt P02766); conditions: in vitro; cited from earlier work
LFA-1/ICAM-1 interaction = LFA-1/ICAM-1 interaction (Homo sapiens, UniProt P05107+P20701); conditions: solid-phase binding assay stated for LFA703; cited from earlier work
inflammatory response = conditions: mouse model of acute inflammation; cited from earlier work
[1] = biological target: mutant hormone / mutant receptor (hGH/hGHbp) (Homo sapiens, UniProt P01241+P10912, T201G/W122G); conditions: at a concentration of 100 μM; cited from earlier work
FcεRIα = biological target: T1, FcεRIα; conditions: natural IgE-receptor interaction; read-out: affinity of the natural receptor interaction; cited from earlier work
[2] = biological target: T2, 488-labeled 367C IgE-Fc bound to FcεRIα (Homo sapiens, UniProt P01854+P12319, K248C); test: fluorescence assay in competitive inhibitor format; format: binding
T2 construct: starts at amino acid 1 and ends at amino acid 176 of said FcεRIα, using the numbering −25 to 232; made in house; host or cells: IgE-Fc: insect cells (Trichoplusia ni)
Protocol: Fluorescence Measurement. Samples were monitored by fluorescence using a Synergy 4 Fluorometer (BioTek) in black 96-well Costar fluorescence plates (Corning). Samples were prepared manually by mixing Alexa-488-labelled 367C IgE-Fc in 0.1% Tween-20 and 100 nM BSA, with buffered 50 mM Tris and 50 mM NaCl, pH 8. Fluorescence was measured using an excitation wavelength of 488 nm and emission was monitored at 520 nm. The read-type for typical measurements was Endpoint. All measurements were recorded in duplicate.

Molecule | inhibition of TTR amyloid fibril formation (transthyretin (TTR)) | further results
O=C(O)c1cccc2c1Oc1c(C(=O)O)cccc1N2c1cccc(C(F)(F)F)c1 [PHENOX, N-(meta-trifluoromethylphenyl)-phenoxazine-4,6-dicarboxylic acid] | potent inhibitors | 
CC(C(=O)O)c1ccc(-c2ccccc2)c(F)c1 (stereo not drawn) [flurbiprofen] | strongly inhibited | 
O=C(O)c1ccccc1Nc1ccccc1C(F)(F)F [o-FLU, ortho-trifluoromethylphenyl anthranilic acid] | potent inhibitors | 
O=C(O)c1ccccc1Nc1cccc(C(F)(F)F)c1 [flufenamic acid] | potently inhibit | 
Oc1ccc(C=Cc2cc(O)cc(O)c2)cc1 [resveratrol] | strongly inhibited | 
CC[C@H](C)C(=O)O[C@H]1C[C@@H](C)C=C2C=C[C@H](C)[C@H](CC[C@H]3C[C@@H](O)CC(=O)N3Cc3ccc4c(CO)c(OC)ccc4c3)[C@H]21 [LFA703] |  | IC50 (LFA-1/ICAM-1 interaction): 200 nM; inflammatory response (inflammatory response): suppress the inflammatory response
O=C(O)Cc1ccccc1Nc1c(Cl)cccc1Cl [diclofenac] | strongly inhibited | 
Clc1ccc2nc(C(Cl)(Cl)Cl)[nH]c2c1 [5-Chloro-2-trichloromethyl benzimidazole] |  | increase in binding affinity of the mutant hormone to the mutant receptor [1]: more than 1000 fold
B1 |  | Kd (FcεRIα): ~1 nM; direct effect on fluorescence of the dye-labeled IgE-Fc ([2]; control in the absence of FcεRIα): no significant effect; fluorescence recovery / competition of receptor binding ([2]; in the presence of FcεRIα): completely competed
